# From patent publication US9096832B2, “Differentiation of human embryonic stem cells” (LifeScan, Inc., priority 2007, dated 2015)
# Assays:
# [1] = tested on: H9P49 embryonic stem cells; test: Pancreatic endoderm under feeder-free conditions: retinoic acid analogues (real-time PCR); assay type: cell-based, human
# Protocol: At day 5, cells were collected for evaluation by FACS and real-time PCR. […] The resulting definitive endoderm cells at day 5 were exposed to the following media conditions to induce pancreatic endoderm formation: culturing in DMEM/F12 media supplemented with 2% FBS and 1 μM all-trans retinoic acid (RA) (Catalog#R2625, Sigma, MO), or 0.1-10 μM AM-580 (4-[(5,6,7,8-Tetrahydro-5,5,8,8-tetramethyl-2-naphthalenyl)carboxamido]benzoic acid, Catalog#A8843, Sigma, MO), or 0.1-1 μM TTNPB (4-[(E)-2-(5,6,7,8-Tetrahydro-5,5,8,8-tetramethyl-2-naphthalenyl)-1-propenyl]benzoic acid Arotinoid acid, Catalog#T3757, Sigma, MO) for 3 days. AM-580 and TTNPB are retinoic acid analogs with affinity for retinoic acid receptors. RA treatment was followed by additional three day treatment in DMEM/F 12 media supplemented with 2% FBS and 20-50 ng/ml bFGF (Catalog#F0291, Sigma, MO).
# [2] = tested on: H1P54 ES cells; test: Evaluation of various GSK-3B inhibitors in DE formation (real-time PCR); assay type: cell-based, human; settings: 100 nM for first two days, compared to GSK-3B inhibitor VIII and XII
# Protocol: The effectiveness of a number of commercially available GSK-3B inhibitors was evaluated in formation of DE from human embryonic stem cells. The following GSK-3B inhibitors were evaluated at 100 nM: GSK-3B inhibitor VIII (Catalog#361549, Calbiochem, CA), GSK-3B inhibitor IX (Catalog#361550, Calbiochem, CA), GSK-3B inhibitor XI (Catalog#361553, Calbiochem, CA), GSK-3B inhibitor XII (Catalog#361554, Calbiochem, CA). […] Control cultures were treated with low serum plus high dose of AA. FIG. 47, panels a and b depicts the gene expression of definitive endoderm markers at day 5. GSK-3B inhibitor IX and XI were both effective in inducing DE formation as compared to GSK-3B inhibitor VIII and XII.
# [3] = tested on: human embryonic stem cell line H1 at passage 55; test: Definitive endoderm on human serum coated plates (real-time PCR); assay type: cell-based; settings: with activin A, vs activin A only
# Protocol: Cultures of the human embryonic stem cell line H1 at passage 55 were grown and differentiated on human serum (Sigma, #H1388, MO) coated plates. 0.5 ml of human serum was added to each well of 6 well tissue culture treated dish, incubated for 1 hr at room temperature, and aspirated before adding human embryonic stem cells. […] These findings parallel our findings for human embryonic stem cells cultured on […]™ or human fibronectin coated plates.
# [4] = tested on: H9P46-P48 embryonic stem cells; test: Definitive endoderm on […]: effect of GSK-3B inhibitor IX (FACS CXCR4, PCR); assay type: cell-based, human; settings: day 5
# Protocol: In order to confirm that the effect of Wnt-3a was through the Wnt pathway, a GSK-3 inhibitor was used to activate the downstream targets of Wnt, such as beta catenin. […] FIG. 29, panel a depicts the expression of CXCR4 by FACS at day 5 in the absence of Wnt-3a or GSK-3B inhibitor, b) +20 ng/ml Wnt-3a, c) +1000 nM GSK-3B inhibitor IX, d) +500 nM GSK-3B inhibitor IX, e) +100 nM GSK-3B inhibitor IX, f) +10 nM GSK-3B inhibitor IX, g) +100 nM GSK-3B inhibitor IX for days 1-2, and h) +10 nM GSK-3B inhibitor IX for days 1-2.
# [5] = tested on: human embryonic stem cell line H9; test: Formation of pancreatic endocrine cells with gamma-secretase inhibitor L-685,458 (PCR); assay type: cell-based
# Protocol: After this time interval, the cells were then treated for six days with combinations of retinoic acid and FGF as outlined in Example 2, then the culture medium was removed and replaced with medium comprising DMEM/F12 with 2% FBS, containing the γ-secretase inhibitors L-685,458 at 10 μM for three days.
# Final data were expressed relative to a calibrator sample.
# [6] = tested on: human embryonic stem cell line H9; settings: activin A or retinoic acid alone
# Protocol: Cultures were harvested and samples of mRNA were collected for analysis.
# Cells seeded on 0.1% Matrigel (BD) coated dishes were fixed with 4% paraformaldheyde for 20 min at room temperature. Fixed cells were blocked for 1 h at room temperature with PBS/0.1%BSA/10% normal chick serum /0.5% Triton X-100 and then incubated overnight with primary antibodies in PBS/0.1%BSA/10% normal chick serum at 4° C. After three washes in PBS/0.1% BSA, fluorescent secondary antibodies at a 1:100 dilution in PBS were incubated with cells for 1 h at room temperature to allow binding. Control samples included reactions where the primary antibody was omitted or where the primary antibody was replaced with corresponding matched negative control immunoglobulins at the same concentration as the primary antibodies. […]
# Real-time PCR amplification and quantitative analysis: Unless otherwise stated, all reagents were purchased from Applied Biosystems. […] For each primer/probe set, a Ct value was determined as the cycle number at which the fluorescence intensity reached a specific value in the middle of the exponential region of amplification. Relative gene expression levels were calculated using the comparative Ct method. […] The normalized amount of target was calculated as 2-ΔCt, assuming amplification to be 100% efficiency. […]
# [7] = tested on: H9P44 cells; test: Definitive endoderm on MEFs: growth factor combinations in low serum (FACS CXCR4, RT-PCR; Table V); assay type: cell-based, human; settings: H9P44 on MEF, Day 3, normalized to Group 1 (control)
# Protocol: H9P44 cells were plated onto 6 well plates previously coated with mitomycin treated mouse embryonic fibroblasts (MEF). Cells were grown until 70 to 80% confluency in ES cell medium consisting of DMEM/F12 (Invitrogen/GIBCO) supplemented with 20% knockout serum replacement, 100 nM MEM nonessential amino acids, 0.5 mM beta-mercaptoethanol, 2 mM L-glutamine (all from Invitrogen/GIBCO) and 8 ng/ml human basic fibroblast growth factor (bFGF) (R&D Systems).
# Growth factors were added to increasing concentration of FBS in a stepwise manner as indicated in the following regimen: • Day 0: 0% FBS in DMEM/F12 • Day 1: 0.5% FBS in DMEM/F12 • Day 2: 2% FBS in DMEM/F12. • Day 3: Cells were harvested for FACS analysis and RT-PCR.
# All growth factors were purchased from R&D Systems, MN. A detailed description and concentration of growth factors for each treatment group is shown below. • 1. Control—No growth factor added • 2. […] IL-4 (10 ng/ml) • 10. SDF1a (20 ng/ml) • 11. […] BMP2 (100 ng/ml)+BMP-4 (100 ng.ml)+BMP-6 (100 ng/ml)+BMP-7 (100 ng/ml) • 13.
# Cells were harvested on Day 3 of DE protocol treatment. For analysis, an aliquot of treated cells was used for RNA preparation for RT-PCR and the rest of cells used for FACS analysis.
# For RT-PCR analysis, cells were analyzed for expression of selected panel of definitive endoderm markers.
# [8] = tested on: pancreatic endoderm cells derived from human embryonic stem cells; test: Passage and expansion of pancreatic endoderm cells in culture with FGF10 (Q-PCR); assay type: cell-based; settings: 50 ng/ml FGF10, 6 day culture period
# Protocol: The low serum DMEM/F12 contained 0% (v/v) fetal bovine serum (FBS) on day 1, 0.5% (v/v) FBS on day two and 2% (v/v) FBS on each day thereafter. After four days of differentiation, the cells were cultured in low serum DMEM/F12 contained 2% (v/v) FBS, 1 μM retinoic acid and 50 ng/ml bFGF for a total of six more days. After the six days of differentiation, the cells were maintained in culture in low serum DMEM/F12 contained 2% (v/v) FBS in the presence of 50 ng/ml FGF10 for a total of 6 days. During the six-day culture period, the pancreatic endoderm cells were passaged twice and cell population-doubling time is about 36 to 48 hours during this 6-day culture. On days 0, 3, and 6 of culture, Q-PCR was used to measure the expression of marker genes indicative of pancreatic endoderm.
# [9] = tested on: H7P44 and H9P46 embryonic stem cells; test: Definitive endoderm on […]: role of Wnt ligands (FACS CXCR4, real-time PCR); assay type: cell-based, human; settings: low serum+AA+/-Wnt ligands, H7 and H9, five days
# Protocol: In some of the cultures 20 ng/ml Wnt-3a (Catalog#1324-WN-002, R&D Systems, MN), 20 ng/ml Wnt-5a (Catalog#654-WN-010, R&D Systems, MN), 25 ng/ml Wnt-7a (Catalog#3008-WN-025, R&D Systems, MN), or 25 ng/ml Wnt-5b (Catalog#3006-WN-025, R&D Systems, MN) was added throughout the five day treatment. FIG. 24 depicts phase contrast images of H9P46 definitive endoderm culture in the presence of high concentration of (a) AA or (b) AA+20 ng/ml Wnt-3a. FIG. 25 depicts the expression of CXCR4 by FACS at day 5 for H7P44, and H9P46 lines cultured on […]™ (1:30 dilution) and exposed to the DE protocol+Wnt-3a (FIG. 25, panels b and d) and −Wnt-3a (FIG. 25, panels a and c).
molecule,measurement,setting,value
"CC1(C)CCC(C)(C)c2cc(C(=O)Nc3ccc(C(=O)O)cc3)ccc21 [AM-580, 4-[(5,6,7,8-Tetrahydro-5,5,8,8-tetramethyl-2-naphthalenyl)carboxamido]benzoic acid]",AFP and CDX-2 expression,[1]; 10 μM AM-580,suppressed
same,expression of PDX-1,[1]; 10 μM AM-580,maintaining a high expression
O=C1Nc2cc(Br)ccc2/C1=C1/Nc2ccccc2/C1=N\O [GSK-3B inhibitor IX],inducing DE formation,[2],effective
same,expression of definitive endoderm markers,[3],Robust expression
same,number of CXCR4 positive cells,[4]; 20 ng/ml Wnt-3a or 100-1000 nM GSK-3B inhibitor,significantly increased
same,expression of CXCR4 by FACS,[4]; 10 nm GSK-3B inhibitor,very low
O=C1NC(=O)C(c2cn(CCCO)c3ncccc23)=C1c1cnccn1 [GSK-3B inhibitor XI],inducing DE formation,[2],effective
"CC(C)C[C@H](NC(=O)[C@H](Cc1ccccc1)C[C@@H](O)[C@H](Cc1ccccc1)NC(=O)OC(C)(C)C)C(=O)N[C@@H](Cc1ccccc1)C(N)=O [L-685,458]",NeuroD1 expression,"[5]; L-685,458 10 μM",increased further
same,expression of Hes-1,"[5]; L-685,458 10 μM",decrease
same,time of maximal inhibition of Hes-1 expression,"[5]; L-685,458 10 μM",day three post treatment
same,Ngn3 expression relative to activin A alone or retinoic acid with FGFs,"[5]; L-685,458 10 μM for three days",approximately 50 fold
same,increase of insulin expression,"[5]; L-685,458 10 μM for three days",70 fold
"CC1=C(/C=C/C(C)=C/C=C/C(C)=C/C(=O)O)C(C)(C)CCC1 [retinoic acid, all-trans retinoic acid]","foregut endoderm markers, such as CDX-2 and AFP",[1]; 1 μM RA followed by bFGF,robust expression
same,"pancreatic endoderm markers, such as PDX-1",[1]; 1 μM RA followed by bFGF,significantly upregulates
same,expression of Pdx1,[6],did not induce
Group 9: IL-4 (10 ng/ml),CXCR4 relative expression,[7],1.4
same,Goosecoid relative expression,[7],0.9
same,HNF-3B relative expression,[7],0.89
same,Oct-4 relative expression,[7],0.85
same,SOX-2 relative expression,[7],1.2
same,Sox17 relative expression,[7],1
"FGF10: fibroblast growth factor FGF10, 50 ng/ml (protein, UniProt O15520 38-208, looked up) Fibroblast growth factor 10: QALGQDMVSPEATNSSSSSFSSPSSAGRHVRSYNHLQGDVRWRKLFSFTKYFLKIEKNGKVSGTKKENCPYSILEITSVEIGVVAVKAINSNYYLAMNKKGKLYGSKEFNNDCKLKERIEENGYNTYASFNWQHNGRQMYVALNGKGAPRRGQKTRRKNTSAHFLPMVVHS",expression of pancreatic endoderm marker Pdx1,[8],maintained expression
"Wnt-5b: Wnt ligand, Catalog#3006-WN-025, R&D Systems (protein, UniProt Q9H1J7 18-359, looked up) Protein Wnt-5b: QLLTDANSWWSLALNPVQRPEMFIIGAQPVCSQLPGLSPGQRKLCQLYQEHMAYIGEGAKTGIKECQHQFRQRRWNCSTADNASVFGRVMQIGSRETAFTHAVSAAGVVNAISRACREGELSTCGCSRTARPKDLPRDWLWGGCGDNVEYGYRFAKEFVDAREREKNFAKGSEEQGRVLMNLQNNEAGRRAVYKMADVACKCHGVSGSCSLKTCWLQLAEFRKVGDRLKEKYDSAAAMRVTRKGRLELVNSRFTQPTPEDLVYVDPSPDYCLRNESTGSLGTQGRLCNKTSEGMDGCELMCCGRGYNQFKSVQVERCHCKFHWCCFVRCKKCTEIVDQYICK",expression of definitive endoderm markers (real-time PCR),[9],minimal impact
"Group 2: Activin A (100 ng/ml) (protein, UniProt P08476 311-426, looked up) Inhibin beta A chain: GLECDGKVNICCKKQFFVSFKDIGWNDWIIAPSGYHANYCEGECPSHIAGTSGSSLSFHSTVINHYRMRGHSPFANLKSCCVPTKLRPMSMLYYDDGQNIIKKDIQNMIVEECGCS",CXCR4 relative expression,[7],19.5
same,Goosecoid relative expression,[7],2.8
same,HNF-3B relative expression,[7],0.64
same,Oct-4 relative expression,[7],1.1
same,SOX-2 relative expression,[7],0.91
same,Sox17 relative expression,[7],45
"Wnt-7a: Wnt ligand, Catalog#3008-WN-025, R&D Systems (protein, UniProt O00755 32-349, looked up) Protein Wnt-7a: LGASIICNKIPGLAPRQRAICQSRPDAIIVIGEGSQMGLDECQFQFRNGRWNCSALGERTVFGKELKVGSREAAFTYAIIAAGVAHAITAACTQGNLSDCGCDKEKQGQYHRDEGWKWGGCSADIRYGIGFAKVFVDAREIKQNARTLMNLHNNEAGRKILEENMKLECKCHGVSGSCTTKTCWTTLPQFRELGYVLKDKYNEAVHVEPVRASRNKRPTFLKIKKPLSYRKPMDTDLVYIEKSPNYCEEDPVTGSVGTQGRACNKTAPQASGCDLMCCGRGYNTHQYARVWQCNCKFHWCCYVKCNTCSERTEMYTCK",expression of definitive endoderm markers (real-time PCR),[9],minimal impact
"Wnt 5a: Wnt ligand, Catalog#654-WN-010, R&D Systems (protein, UniProt P22725 62-380, looked up) Protein Wnt-5a: IIGAQPLCSQLAGLSQGQKKLCHLYQDHMQYIGEGAKTGIKECQYQFRHRRWNCSTVDNTSVFGRVMQIGSRETAFTYAVSAAGVVNAMSRACREGELSTCGCSRAARPKDLPRDWLWGGCGDNIDYGYRFAKEFVDARERERIHAKGSYESARILMNLHNNEAGRRTVYNLADVACKCHGVSGSCSLKTCWLQLADFRKVGDALKEKYDSAAAMRLNSRGKLVQVNSRFNSPTTQDLVYIDPSPDYCVRNESTGSLGTQGRLCNKTSEGMDGCELMCCGRGYDQFKTVQTERCHCKFHWCCYVKCKKCTEIVDQFVCK",expression of definitive endoderm markers (real-time PCR),[9],minimal impact
